Laboratory results published in ChEMBL document CHEMBL1154938 (Bioorg Med Chem Lett, 2010).

Each compound was assayed against C-C chemokine receptor type 5 (Homo sapiens, UniProt P51681) (assay: Displacement of […] from human CCR5 receptor coexpressed with Galphai6 in CHO cells after 2 hrs by scintillation counting). Conditions: not given.
Assay type: cell-based

Sequence of C-C chemokine receptor type 5 (P51681 whole entry): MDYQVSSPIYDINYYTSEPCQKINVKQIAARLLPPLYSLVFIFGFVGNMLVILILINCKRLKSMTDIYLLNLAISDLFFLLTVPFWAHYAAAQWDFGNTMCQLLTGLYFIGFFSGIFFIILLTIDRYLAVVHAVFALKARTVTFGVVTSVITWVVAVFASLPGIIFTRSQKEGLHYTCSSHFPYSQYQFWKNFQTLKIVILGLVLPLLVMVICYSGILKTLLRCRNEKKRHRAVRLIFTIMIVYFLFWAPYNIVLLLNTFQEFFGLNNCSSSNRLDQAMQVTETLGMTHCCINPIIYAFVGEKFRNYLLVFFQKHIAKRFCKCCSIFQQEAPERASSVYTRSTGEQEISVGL

`Cc1nnc(C)n1[C@H]1C[C@H]2CC[C@@H](C1)N2CC[C@H](NC(=O)C1CCC(F)(F)CC1)c1cccc(F)c1` and `Cc1nnc(C)n1[C@H]1C[C@H]2CC[C@@H](C1)N2CC[C@H](NC(=O)C1CC(F)(F)C1)c1cccc(F)c1` are the same in IC50: 5 nM for the first, 5 nM for the second.

`Cc1nnc(C)n1[C@H]1C[C@@H]2CN(CC[C@H](NC(=O)C3CCOCC3)c3cccc(F)c3)C[C@@H]2C1` and `Cc1nnc(C)n1[C@@H]1C[C@@H]2CN(CC[C@H](NC(=O)C3CCOCC3)c3cccc(F)c3)C[C@@H]2C1` are within 1.5-fold of each other in IC50: 43 nM for the first, 30 nM for the second.

First: Cc1nnc(C)n1[C@H]1C[C@H]2CC[C@@H](C1)N2CC[C@H](NC(=O)C1CCOCC1)c1cccc(F)c1
Second: Cc1nnc(C)n1[C@H]1C[C@H]2CC[C@@H](C1)N2CC[C@H](NC(=O)C1CCOC1)c1cccc(F)c1 (some centres not stated)
The IC50 of the first is 1.9-fold higher: 13 nM for the first, 7 nM for the second.

`Cc1nnc(C)n1[C@@H]1C[C@@H]2CN(CC[C@H](NC(=O)C3CCC(F)(F)CC3)c3cccc(F)c3)C[C@@H]2C1` and `Cc1nnc(C)n1[C@H]1C[C@@H]2CN(CC[C@H](NC(=O)C3CC(F)(F)C3)c3cccc(F)c3)C[C@@H]2C1` are within 1.5-fold of each other in IC50: 8 nM for the first, 6 nM for the second.

Compared with `Cc1nnc(C)n1C1CCN(CC[C@H](NC(=O)C2CCC(F)(F)CC2)c2cccc(F)c2)CC1`, `Cc1nnc(C)n1[C@@H]1C[C@@H]2CN(CC[C@H](NC(=O)C3CC(F)(F)C3)c3cccc(F)c3)C[C@@H]2C1` is 6.3-fold lower in IC50: 38 nM for the first, 6 nM for the second. The second is the more potent here.

First: Cc1nnc(C)n1[C@H]1C[C@@H]2CN(CC[C@H](NC(=O)C3CCOC3)c3cccc(F)c3)C[C@@H]2C1 (some centres not stated)
Second: Cc1nnc(C)n1[C@@H]1C[C@@H]2CN(CC[C@H](NC(=O)C3CCOC3)c3cccc(F)c3)C[C@@H]2C1 (some centres not stated)
The IC50 of the first is 1.9-fold higher: 35 nM for the first, 18 nM for the second. The second is the more potent here.

Each compound was assayed on Human immunodeficiency virus 1 (assay: Antiviral activity against CCR5-tropic recombinant HIV1 NLBal virus infected in JC53-BL cells assessed as inhibition of viral replication after 3 days by luciferase reporter gene assay). Conditions: Human immunodeficiency virus 1, NLBal, JC53BL, 72 h.
Assay type: functional, organism-based

First: Cc1nnc(C(C)C)n1[C@H]1C[C@H]2CC[C@@H](C1)N2CC[C@H](NC(=O)C1CCC(F)(F)CC1)c1ccccc1 [MARAVIROC]
Second: Cc1nnc(C)n1[C@H]1C[C@H]2CC[C@@H](C1)N2CC[C@H](NC(=O)C1CCC(F)(F)CC1)c1cccc(F)c1
The IC50 of the first is 1.8-fold lower: 2.8 nM for the first, 5 nM for the second. The first is the more potent here.

`Cc1nnc(C)n1[C@H]1C[C@@H]2CN(CC[C@H](NC(=O)C3CCOCC3)c3cccc(F)c3)C[C@@H]2C1` and `Cc1nnc(C)n1[C@@H]1C[C@@H]2CN(CC[C@H](NC(=O)C3CCOCC3)c3cccc(F)c3)C[C@@H]2C1` cannot be ordered by IC50: at least 625 nM for the first, at least 625 nM for the second.

First: Cc1nnc(C)n1[C@H]1C[C@@H]2CN(CC[C@H](NC(=O)C3CCC(F)(F)CC3)c3cccc(F)c3)C[C@@H]2C1
Second: Cc1nnc(C)n1[C@@H]1C[C@@H]2CN(CC[C@H](NC(=O)C3CCC(F)(F)CC3)c3cccc(F)c3)C[C@@H]2C1
The IC50 of the first is 2-fold higher: 81 nM for the first, 41 nM for the second.

Going from `Cc1nnc(C)n1[C@H]1C[C@H]2CC[C@@H](C1)N2CC[C@H](NC(=O)C1CCOCC1)c1cccc(F)c1` to `Cc1nnc(C)n1[C@H]1C[C@H]2CC[C@@H](C1)N2CC[C@H](NC(=O)C1CCOC1)c1cccc(F)c1` (some centres not stated), the IC50 falls from 220 nM to 62 nM (3.5-fold). The second is the more potent here.

`Cc1nnc(C)n1C1CCN(CC[C@H](NC(=O)C2CCC(F)(F)CC2)c2cccc(F)c2)CC1` and `Cc1nnc(C)n1C1CCN(CC[C@H](NC(=O)C2CCOC2)c2cccc(F)c2)CC1` (some centres not stated) cannot be ordered by IC50: at least 625 nM for the first, at least 625 nM for the second.

Going from `Cc1nnc(C)n1[C@H]1C[C@@H]2CN(CC[C@H](NC(=O)C3CC(F)(F)C3)c3cccc(F)c3)C[C@@H]2C1` to `Cc1nnc(C)n1[C@@H]1C[C@@H]2CN(CC[C@H](NC(=O)C3CC(F)(F)C3)c3cccc(F)c3)C[C@@H]2C1`, the IC50 falls from 200 nM to 74 nM (2.7-fold). The second is the more potent here.

First: Cc1nnc(C)n1[C@H]1C[C@@H]2CN(CC[C@H](NC(=O)C3CCOC3)c3cccc(F)c3)C[C@@H]2C1 (some centres not stated)
Second: Cc1nnc(C)n1[C@@H]1C[C@@H]2CN(CC[C@H](NC(=O)C3CCOC3)c3cccc(F)c3)C[C@@H]2C1 (some centres not stated)
The IC50 of the first is 5.2-fold lower: 40 nM for the first, 210 nM for the second.

`Cc1nnc(C)n1[C@H]1C[C@H]2CC[C@@H](C1)N2CC[C@H](NC(=O)C1CC(F)(F)C1)c1cccc(F)c1` showed an IC50 of 24 nM.
